This note sets out measurements from ChEMBL document CHEMBL1136040, “Specific accumulation and growth inhibitory effects of hybrid liposomes to hepatoma cells in vitro” (Bioorg Med Chem Lett, 2002).

The structures appear in SMILES notation.

For this assay, the system named is HepG2. In words: Compound was tested for its inhibition on growth of human hepatoma cells (Hep-G2); No inhibitory effects was observed. The format is functional, cell-based.

Regarding `CCCCCCCCCCCCCC(=O)OCC(COP(=O)([O-])OCC[N+](C)(C)C)OC(=O)CCCCCCCCCCCCC` (configuration not stated), the inhibition result was “No inhibition”.

Regarding `CCCCCCCCCCCCCC(=O)OCC(COP(=O)([O-])OCC[N+](C)(C)C)OC(=O)CCCCCCCCCCCNc1ccc([N+](=O)[O-])c2nonc12` (configuration not stated), the inhibition entry is “No inhibition”.
